The test system of assay [1] is KYSE-70 esophageal cancer cell line. Nature of the assay: Cell growth inhibition of KYSE-70 (Sulforhodamine B). Type of assay: cell-based. The settings on record: Homo sapiens; KYSE-70, 72 hours; read-out: KYSE70 GI50. The protocol:
The cell line according to the present invention was selected as KYSE-70, an esophageal cancer cell line in which YES1 is amplified. The evaluation of cell growth inhibition was performed as follows.
KYSE-70 was cultured in RPMI-1640 (Capricorn) supplemented with 10% FBS (Cellgro). The cells were seeded 24 hours prior to compound treatment, into three 96-well F-bottom clear plates (Greiner), with 7,500 cells per well in 180 μL of medium. The 10 mM compound was diluted 100-fold in medium to prepare a 100 μM compound, which was then placed into a 96-well plate and further 3-fold diluted in medium to prepare a compound plate with concentrations ranging from 0.046 μM to 100 μM. 20 μL of each compound from the drug plate was added to the cell-seeded plates to achieve final concentrations of 0.0046 μM to 10 μM. At the same time, 50 μL of 33% trichloroacetic acid was injected into one plate and the plate was fixed by incubating at 4° C. This was referred to as the Do plate. Viable cells were measured 72 hours after compound treatment by injecting 50 μL of 33% trichloroacetic acid and incubating at 4° C. for more than 1 hour to fix the cells. This was referred to as the D3 plate. After the Do plate and D3 plates were washed 5 times with sterile water, 100 μL of 0.04% Sulforhodamine B solution in 1% acetic acid was added and reacted for 1 hour to stain the cells. After staining, the plates were washed 4 times with 1% acetic acid solution and completely dried. Then, the Sulforhodamine B bound to cellular proteins was completely dissolved with 10 mM Tris base solution (pH 10.5). The absorbance was measured at a wavelength of 510 nm using a microplate reader (TECAN, sunrise microplate reader). The analysis was performed using GraphPad Prism. The average absorbance of the Do plate was set to 0%, and the average absorbance of the negative control of the D3 plate was set to 100%, from which a graph was drawn and the GI50 values were calculated. Each test was performed twice.

The next assay has as its target YES1 kinase (Homo sapiens, UniProt P07947). Nature of the assay: YES1 kinase inhibition, ADP Glo assay (Promega). Type of assay: biochemical. To be noted: for inhibition at 0.01 µM: compound 10 nM, read-out: YES1 enzyme, % inhibition, 10 nM; for inhibition at 0.1 µM: compound 100 nM, read-out: YES1 enzyme, % inhibition, 100 nM. The protocol:
To evaluate the inhibitory activity against YES1 kinase of the compound according to the present invention, ADP Glo assay (Promega) was used, and the following method was performed with reference to the Promega kinase enzyme system protocol. To proceed with the experiment, buffers A-F and compound dilution plates were required.
To prepare A.4X reaction buffer, 800 μl of 5X reaction buffer and 200 μl of distilled water were used. To prepare B.4X kinase buffer, 996.6 μl of A.4X reaction buffer, 2 μl of 0.1M DTT, and 3.2 μl of 2.5M MnCl2 were added and mixed. To prepare C.1X kinase buffer (containing 5% DMSO) used for compound dilution, 250 μl of B.4X kinase buffer, 700 μl of distilled water, and 50 μl of DMSO were added, so that the final DMSO concentration became 5%. Then, 10 mM compounds were diluted 100-fold to prepare 100 μM solutions, and then D.5X inhibitor solution was prepared so that the compound concentration became 5 uM. Using a 96-well plate, 5 μM compounds were 3-fold diluted using C.1X kinase buffer (containing 5% DMSO) to prepare compound plates with concentrations ranging from 0.25 μM to 5 μM. The resulting plates were stored at room temperature. To prepare E. 2.5X ATP/substrate mixture, 50 μl of B.4X kinase buffer, 50 μl of […], and 100 μl of substrate were mixed. To prepare F YES1 kinase enzyme solution, 35 μl of B.4X kinase buffer, 0.4 μl of YES1 enzyme, and 104.6 μl of distilled water were used. Once the diluted compound plates, ATP/substrate mixture, and YES1 kinase solution were all prepared, 3 μL each was transferred from the diluted compound plate to a luciferase 96-well white plate (Since the total volume of the ATP/substrate and YES1 kinase solution that reacts with the compound is 15 μL, the compounds were diluted 5-fold, making the final compound concentration 0.05 μM-1 μM). Then, 6 μL of F. YES1 Kinase Enzyme Solution was transferred to each well, pipetted 10 times to mix, and incubated at room temperature in a shaker for 10 minutes. Next, 6 μL of E. 2.5X ATP/Substrate Mixture was transferred to each well, pipetted 10 times to mix, and centrifuged at 12,000 rpm for 5 minutes. The plate was then incubated in a shaker at room temperature for 40 minutes. After that, 15 μL of ADP-Glo Reagent, dissolved at room temperature, was added to each well, pipetted 10 times, and incubated in a shaker at room temperature for 40 minutes. Finally, 30 μL of Kinase Detection Reagent, dissolved at room temperature, was added, pipetted 10 times, incubated in a shaker at room temperature for 30 minutes. Luminescence was measured using a luminescence plate reader. Then, the background value was subtracted from all measured values, and the YES1 kinase activity at compound concentrations of 1 nM, 10 nM, and 100 nM was calculated. The measured values were calculated as percentages using the average value of the negative control. Graphs were drawn using GraphPad Prism, and the enzyme activity was calculated as a percentage of YES1 kinase inhibition at compound concentrations of 1 nM, 10 nM, and 100 nM. IC50 values were obtained using Microsoft Excel.
A general note: In ADP-Glo the light output rises with the ADP produced.

Where only a bound is given, the exact number is not on record here.

Sequence of YES1 kinase (P07947 whole entry): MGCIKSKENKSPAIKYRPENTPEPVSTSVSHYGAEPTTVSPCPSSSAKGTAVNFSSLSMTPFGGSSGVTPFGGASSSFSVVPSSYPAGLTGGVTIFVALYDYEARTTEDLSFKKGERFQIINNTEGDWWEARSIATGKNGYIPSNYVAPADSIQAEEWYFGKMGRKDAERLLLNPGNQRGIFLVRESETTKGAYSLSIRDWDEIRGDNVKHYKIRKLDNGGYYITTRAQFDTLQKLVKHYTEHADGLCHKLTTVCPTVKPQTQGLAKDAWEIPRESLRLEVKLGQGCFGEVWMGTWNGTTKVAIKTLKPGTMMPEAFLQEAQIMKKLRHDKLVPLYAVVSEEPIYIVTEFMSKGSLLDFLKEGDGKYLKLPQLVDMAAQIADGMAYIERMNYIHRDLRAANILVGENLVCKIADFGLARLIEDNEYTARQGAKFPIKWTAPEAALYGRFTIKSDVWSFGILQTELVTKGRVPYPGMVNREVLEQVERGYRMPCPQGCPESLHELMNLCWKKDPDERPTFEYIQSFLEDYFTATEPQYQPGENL

By GI50 is commonly meant the concentration that inhibits growth by half. For the compound `COc1cc(-c2c(C(F)(F)F)c(N3CCC(N)CC3)n3ncnc(N)c23)ccc1NC(=O)OC(C)(C)C` [Example 125, tert-butyl (4-(4-amino-7-(4-aminopiperidin-1-yl)-6-(trifluoromethyl)pyrrolo[2,1-f][1,2,4]triazin-5-yl)-2-methoxyphenyl)carbamate], the GI50 in assay [1] lay within 100 to 1000 nM.

On to `COc1cc(-c2cc(N3CCC(C(N)=O)CC3)n3ncnc(N)c23)ccc1NC(=O)OC(C)(C)C` [Example 97, tert-butyl (4-(4-amino-7-(4-carbamoylpiperidin-1-yl)pyrrolo[2,1-f][1,2,4]triazin-5-yl)-2-methoxyphenyl)carbamate], for which the GI50 in assay [1] was above 10000 nM. Same read-out and setting: with `CNC1CCN(CCc2cc(-c3ccc(NC(=O)OC(C)(C)CF)c(OC)c3)c3c(N)ncnn23)CC1` [Example 67, 1-fluoro-2-methylpropan-2-yl (4-(4-amino-7-(2-(4-(methylamino)piperidin-1-yl)ethyl)pyrrolo[2,1-f][1,2,4]triazin-5-yl)-2-methoxyphenyl)carbamate] the figure was 100 to 1000 nM. On the same count and under the same terms, next, `COc1cc(-c2c(C)c(N3CCC(N)CC3)n3ncnc(N)c23)ccc1NC(=O)OC(C)(C)CF` [Example 60, 1-fluoro-2-methylpropan-2-yl (4-(4-amino-7-(4-aminopiperidin-1-yl)-6-methylpyrrolo[2,1-f][1,2,4]triazin-5-yl)-2-methoxyphenyl)carbamate]: at most 100 nM; `COc1cc(-c2cc(N3CCC(N)C4(CC4)C3)n3ncnc(N)c23)ccc1NC(=O)OC(C)(C)C` (stereo not drawn) [Example 80, tert-butyl (4-(4-amino-7-(8-amino-5-azaspiro[2.5]octan-5-yl)pyrrolo[2,1-f][1,2,4]triazin-5-yl)-2-methoxyphenyl)carbamate]: 100 to 1000 nM.

As to `CNC1CCN(c2cc(-c3ccc(NC(=O)OC(C)(C)C)c(OC)c3)c3c(N)nccn23)CC1` [Example 133, tert-butyl (4-(1-amino-6-(4-(methylamino)piperidin-1-yl)pyrrolo[1,2-a]pyrazin-8-yl)-2-methoxyphenyl)carbamate], in assay [1], the GI50 lay in the range of 100 to 1000 nM. On the same count and under the same terms, next, `CNCCC1CCN(c2c(C)c(-c3ccc(NC(=O)OC(C)(C)C)c(OC)c3)c3c(N)ncnn23)CC1` [Example 77, tert-butyl (4-(4-amino-6-methyl-7-(4-(2-(methylamino)ethyl)piperidin-1-yl)pyrrolo[2,1-f][1,2,4]triazin-5-yl)-2-methoxyphenyl)carbamate]: 100 to 1000 nM; `COc1cc(-c2cc(N3CCC(N(C)C)CC3)n3ccnc(N)c23)ccc1NC(=O)OC(C)(C)C` [Example 134, tert-butyl (4-(1-amino-6-(4-(dimethylamino)piperidin-1-yl)pyrrolo[1,2-a]pyrazin-8-yl)-2-methoxyphenyl)carbamate]: at most 100 nM; `COc1cc(-c2cc(N[C@@H]3CC[C@H](CN)C3)n3ncnc(N)c23)ccc1NC(=O)OC(C)(C)C` [Example 111, tert-butyl (4-(4-amino-7-(((1R,3S)-3-(aminomethyl)cyclopentyl)amino)pyrrolo[2,1-f][1,2,4]triazin-5-yl)-2-methoxyphenyl)carbamate]: above 10000 nM.

In the case of `COc1cc(-c2cc(NC[C@H]3CC[C@@H](N)C3)n3ncnc(N)c23)ccc1NC(=O)OC(C)(C)C` [Example 110, tert-butyl (4-(4-amino-7-((((1S,3R)-3-aminocyclopentyl)methyl)amino)pyrrolo[2,1-f][1,2,4]triazin-5-yl)-2-methoxyphenyl)carbamate], in assay [1], the concentration for 50% growth inhibition (GI50) fell in the range of 100 to 1000 nM. Regarding `COc1cc(-c2cc(N3CCC(N)CC3)n3ncnc(N)c23)ccc1NC(=O)OC1(C)CC1` [Example 71, 1-methylcyclopropyl (4-(4-amino-7-(4-aminopiperidin-1-yl)pyrrolo[2,1-f][1,2,4]triazin-5-yl)-2-methoxyphenyl)carbamate], in assay [1], the 50% growth inhibitory concentration (GI50) was at most 100 nM. Same read-out and setting: next, `COc1cc(-c2cc(CCN3CCC(N(C)C)CC3)n3ncnc(N)c23)ccc1NC(=O)OC(C)(C)CF` [Example 69, 1-fluoro-2-methylpropan-2-yl (4-(4-amino-7-(2-(4-(dimethylamino)piperidin-1-yl)ethyl)pyrrolo[2,1-f][1,2,4]triazin-5-yl)-2-methoxyphenyl)carbamate]: at most 100 nM; `COc1cc(-c2c(C)c(N3CCC(N(C)C)CC3)n3ncnc(N)c23)ccc1NC(=O)OC(C)(C)C` [Example 76, tert-butyl (4-(4-amino-7-(4-(dimethylamino)piperidin-1-yl)-6-methylpyrrolo[2,1-f][1,2,4]triazin-5-yl)-2-methoxyphenyl)carbamate]: at most 100 nM. The same measure, in the same setting: with `COc1cc(-c2c(I)c(N3CCC(N)CC3)n3ncnc(N)c23)ccc1NC(=O)OC(C)(C)C` [Example 126, tert-butyl (4-(4-amino-7-(4-aminopiperidin-1-yl)-6-iodopyrrolo[2,1-f][1,2,4]triazin-5-yl)-2-methoxyphenyl)carbamate] the figure was 100 to 1000 nM; with `CNCCC1CCN(c2c(F)c(-c3ccc(NC(=O)OC(C)(C)C)c(OC)c3)c3c(N)ncnn23)CC1` [Example 131, tert-butyl (4-(4-amino-6-fluoro-7-(4-(2-(methylamino)ethyl)piperidin-1-yl)pyrrolo[2,1-f][1,2,4]triazin-5-yl)-2-methoxyphenyl)carbamate], at most 100 nM; with `COc1cc(-c2cc(N3CCC(C)(NC(C)=O)CC3)n3ncnc(N)c23)ccc1NC(=O)OC(C)(C)C` [Example 96, tert-butyl (4-(4-amino-7-(4-acetamido-4-methylpiperidin-1-yl)pyrrolo[2,1-f][1,2,4]triazin-5-yl)-2-methoxyphenyl)carbamate], above 10000 nM. As for `COc1cc(-c2cc(N3CCC(N)CC3)n3ccnc(N)c23)ccc1NC(=O)OC(C)(C)C` [Example 132, tert-butyl (4-(1-amino-6-(4-aminopiperidin-1-yl)pyrrolo[1,2-a]pyrazin-8-yl)-2-methoxyphenyl)carbamate], the GI50 in assay [1] lay within 100 to 1000 nM. As usually defined, the inhibition is the percentage by which the read-out fell short of the control. Turning to `COc1cc(-c2cc(N3C[C@H]4CN(C)C[C@H]4C3)n3ncnc(N)c23)ccc1NC(=O)OC(C)(C)C` [Example 34, tert-butyl (4-(4-amino-7-((3aR,6aS)-5-methylhexahydropyrrolo[3,4-c]pyrrol-2(1H)-yl)pyrrolo[2,1-f][1,2,4]triazin-5-yl)-2-methoxyphenyl)carbamate], on YES1 kinase, the inhibition at 0.01 µM turned out to be 37% and the inhibition at 0.1 µM was found to be 74%.

`COc1cc(-c2cc(N3CC[C@@H](N(C)C)[C@H](F)C3)n3ncnc(N)c23)ccc1NC(=O)OC(C)(C)C` [Example 32, tert-butyl (4-(4-amino-7-((3R,4R)-4-(dimethylamino)-3-fluoropiperidin-1-yl)pyrrolo[2,1-f][1,2,4]triazin-5-yl)-2-methoxyphenyl)carbamate]: at YES1 kinase, the inhibition at 0.01 µM is 51% and the inhibition at 0.1 µM is 82%.

Source of the values: patent US20260297095A1, “NOVEL PYRROLOTRIAZINE DERIVATIVE AND USE THEREOF” (Pelemed Co., Ltd., priority 2024, published 2026).
